The term Ki denotes the dissociation constant of the complex between target and ligand, obtained from inhibition or displacement. Higher therefore signals lower affinity.

For the assay, the target named is Solute carrier organic anion transporter family member 2A1 (Rattus norvegicus, UniProt Q00910). Put plainly: TP_TRANSPORTER: inhibition of PGF2alpha uptake in PGT-expressing HeLa cells. It is filed as functional, cell-based.

In turn, `Cc1c(C2(c3cc(Br)c(O)c(Br)c3C)OS(=O)(=O)c3ccccc32)cc(Br)c(O)c1Br` [BROMCRESOL GREEN] had a Ki of 3.6 µM.
The same measure for `NS(=O)(=O)c1cc(C(=O)O)c(NCc2ccco2)cc1Cl` [FUROSEMIDE]: 47 µM.
The same measure for `CC1(C)C(/C=C/C=C/C=C/C=C2\N(CCCCS(=O)(=O)O)c3ccc4ccccc4c3C2(C)C)=[N+](CCCCS(=O)(=O)[O-])c2ccc3ccccc3c21` [INDOCYANINE GREEN]: 35 µM; for `O=C1OC(c2ccc(O)c(S(=O)(=O)O)c2)(c2ccc(O)c(S(=O)(=O)O)c2)c2c(Br)c(Br)c(Br)c(Br)c21` [SULFOBROMOPHTHALEIN SODIUM]: 5.8 µM.
